From patent US5998596A, “Inhibition of protein kinase activity by aptameric action of oligonucleotides” (The United States of America as represented by the …)

Experiments:
[1] = system: p210^bcr-abl kinase; experiment: Immunoprecipitation kinase assay of p210bcr-abl (autophosphorylation), ODN added to kinase reaction; assay type: biochemical, human; settings: ODN at 1 μM added to the immunoprecipitated enzyme
Procedure: The p210^bcr-abl kinase, src kinase and cdc-2 kinase were immunoprecipitated from K562 cells. The p145^abl kinase was immunoprecipitated from PC3M cells, PDGF receptor kinase from 3T3 cells, and EGF receptor kinase from A431 cells. MAP kinase was utilized as a pure protein and lck kinase was immunoprecipitated from peripheral blood lymphocytes of a normal volunteer.
(§1) Cells were washed in phosphate buffered saline (PBS) and 0.5-5×10^6 cells were solubilized in 1 ml of the specified cell lysis buffers. Unless otherwise stated, all cell lysis buffers contained the following protease inhibitors: 20 μg/ml leupeptin, 1 μg/ml aprotinin, and 1 mM phenylmethylsulfonylfluroide. For p210^bcr-abl and […] immunoprecipitation, cells were lysed with ABL lysis buffer (25 mM imidazole, pH 7.2, 0.5% NP40, 50 mM NaCl, 1 mM Na3 VO4) and lysates were clarified at 14,000 g. 4° C. for 30 minutes. Cell lysis for all other proteins was performed according to the references describing the various immunoprecipitation kinase assays.
(§2) Immunoprecipitation kinase assays of p210^bcr-abl p145^abl were performed as described, with modifications (15). Briefly, for p210^bcr-abl, 1 μg of anti-bcr antibody (clone 7C6, Oncogene Science, Uniondale, N.Y.) was added to lysates prepared from 0.5-1×10^6 K562 cells. For p145^abl, 1 μg of anti-c-abl antibody (clone 24-21), which binds to the C-terminal domain of p145^abl, was added to lysates prepared from 5×10^6 PC3M cells. After incubating 1 hour at 4° C., complexes were precipitated by incubating with protein A-Sepharose coated with rabbit anti-mouse immunoglobulin (Cappel Research Products, Durham, N.C.) for 30 minutes. The complexes were then washed as follows: ABL lysis buffer×2, PBS×1, and ABL assay buffer×1 (24 mM imidazole, pH 7.2, 1 mg/ml bovine serum albumin, and 10 mM MnCl). For p145^abl assays ABL assay buffer contained 20 mM MnCl. To access the activity of p210^bcr-abl on substrate phosphorylation, acid inactivated enolase (Sigma Chemical Co., St. Louis, Mo.) was added as described (15).
(§3) ODNs were added to kinase reaction buffers not more than 5 minutes prior to the addition of ATP. Reactions were initiated by the addition of [γ^-32 P] ATP (3000 Ci/mmole; Amersham Corp., Arlington Heights, Ill.) and quenched by the addition of 5× gel loading buffer and heating to 95° C. Kinase reactions were run for 1-10 minutes at room temperature, except for EGFR, p145^abl, and MAP kinase, which were run at 30° C. The products were then electrophoresed on SDS-polyacrylamide gels: 7% for p210^bcr-abl, EGFR, and PDGFR, 8% for p145^abl, 10% for src, lck, and cdc-2 kinase, and 12% for MAP kinase. Gels were dried and reaction products were visualized by direct autoradiography at -70° C. with Kodak X-OMAT AR film. To determine the inhibitory concentration 50, i.e., the concentration required to inhibit enzyme activity by 50% (IC50) and Ki values, gel slices containing the band of interest were excised and analyzed by Cerenkov counting.

[2] = system: p210^bcr-abl kinase in K562 cells; experiment: Immunoprecipitation kinase assay of p210bcr-abl from ODN treated K562 cells; assay type: cell-based, human; settings: K562 cells treated with T-21 overnight, washed, calculated from FIG. 9A, read-out: IC50 of apparent reduction of p210^bcr-abl kinase activity
Procedure: as §2, §3
The effects of ODN1 on a cellular system were assessed. […] After 3 days, cells were washed and p210^bcr-abl kinase activity was measured. […] Neither cellular p210^bcr-abl protein content nor cell growth was affected by ODN treatment (data not shown).

[3] = system: p210^bcr-abl; experiment: Inhibition of p210bcr-abl immunoprecipitation by BCR directed antibody clone 7C6; assay type: binding, human; settings: 10 μM ODN added to K562 cell lysate, antibody clone 7C6, Western for phosphotyrosine
Procedure: FIG. 9C. Inhibition of p210^bcr-abl immunoprecipitation by T-21. […] T-21 was added to the lysate from 1×10^6 K562 cells (lane 2) and p210^bcr-abl immunoprecipitated with the BCR directed antibody, clone 7C6; no ODN was added to the lysate immunoprecipitated in lane 1. After extensive washing, the immunoprecipitates were separated on a 7% SDS polyacrylamide gel, transferred to nitrocellulose, and probed with an anti-phosphotyrosine antibody. Data are representative of at least two separate experiments.
In experiments designed to test the specificity of BCR-AS, an ODN composed solely of thymidylic acid residues (T-21) i.e., 5' […] 3' (SEQ ID NO.: 12) was capable of interfering with p210^bcr-abl immunoprecipitation. […] From the data in FIG. 9A, one can calculate an IC50 of less than 1 μM. […] This apparent discrepancy appears to be due to the ability of T-21 to inhibit precipitation of p210^bcr-abl by the BCR-directed antibody, clone 7C6. […] Inhibition of p210^bcr-abl immunoprecipitation was not seen with the other ODNs used in this study (data now shown).

[4] = molecular target: p145 ABL tyrosine kinase (c-Abl) (UniProt P00519 P00519:1-1130); experiment: inhibition; 20 mM Mn, 30 C; settings: tags: immunoprecipitated from PC3M cells with anti-c-abl clone 24-21
Procedure: as §1, with “0.5–5×10^6” for “0.5-5×10^6”, “µg/ml” for “μg/ml”, “Na_3VO_4)” for “Na3 VO4)”
Immunoprecipitation kinase assays of p210^bcr-abl p145^abl were performed as described, with modifications (15). Briefly, for p210^bcr-abl, 1 µg of anti-bcr antibody (clone 7C6, Oncogene Science, Uniondale, N.Y.) was added to lysates prepared from 0.5–1×10^6 K562 cells. For p145^abl, 1 µg of anti-c-abl antibody (clone 24-21), which binds to the C-terminal domain of p145^abl, was added to lysates prepared from 5×10^6 PC3M cells. After incubating 1 hour at 4° C., complexes were precipitated by incubating with protein A-Sepharose coated with rabbit anti-mouse immunoglobulin (Cappel Research Products, Durham, N.C.) for 30 minutes. […]

Sequence of p145 ABL tyrosine kinase (c-Abl) (P00519 whole entry, one chain of several): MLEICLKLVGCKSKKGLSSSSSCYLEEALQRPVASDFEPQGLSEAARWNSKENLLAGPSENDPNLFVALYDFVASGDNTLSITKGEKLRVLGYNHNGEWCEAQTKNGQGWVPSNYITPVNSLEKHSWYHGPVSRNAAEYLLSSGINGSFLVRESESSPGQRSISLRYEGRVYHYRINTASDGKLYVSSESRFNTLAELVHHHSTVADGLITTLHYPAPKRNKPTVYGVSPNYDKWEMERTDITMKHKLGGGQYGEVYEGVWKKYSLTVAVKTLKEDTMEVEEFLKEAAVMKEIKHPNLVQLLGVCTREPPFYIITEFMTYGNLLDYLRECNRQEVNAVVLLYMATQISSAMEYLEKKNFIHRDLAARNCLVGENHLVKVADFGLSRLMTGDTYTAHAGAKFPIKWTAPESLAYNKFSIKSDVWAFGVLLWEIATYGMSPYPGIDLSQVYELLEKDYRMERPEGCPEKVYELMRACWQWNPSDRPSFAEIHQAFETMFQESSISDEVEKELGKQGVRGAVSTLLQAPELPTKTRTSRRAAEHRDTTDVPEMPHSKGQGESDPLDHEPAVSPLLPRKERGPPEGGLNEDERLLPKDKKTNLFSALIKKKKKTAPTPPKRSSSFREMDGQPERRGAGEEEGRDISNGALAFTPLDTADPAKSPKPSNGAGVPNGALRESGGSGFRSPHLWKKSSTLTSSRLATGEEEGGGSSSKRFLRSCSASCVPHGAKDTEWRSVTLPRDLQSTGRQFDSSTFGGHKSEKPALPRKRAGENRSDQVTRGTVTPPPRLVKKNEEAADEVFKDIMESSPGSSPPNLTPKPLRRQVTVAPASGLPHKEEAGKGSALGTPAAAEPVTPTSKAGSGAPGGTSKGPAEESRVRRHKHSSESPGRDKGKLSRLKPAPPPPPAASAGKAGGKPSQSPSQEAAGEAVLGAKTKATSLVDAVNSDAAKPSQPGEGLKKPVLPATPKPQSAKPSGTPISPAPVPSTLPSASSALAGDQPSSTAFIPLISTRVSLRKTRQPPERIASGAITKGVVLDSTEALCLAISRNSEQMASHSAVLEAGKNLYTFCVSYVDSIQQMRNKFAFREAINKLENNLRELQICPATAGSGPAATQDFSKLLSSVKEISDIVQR

Molecule | inhibition of p210^bcr-abl kinase activity in vitro (in words) [1] | IC50 [2] [nM] | inhibition of p210^bcr-abl immunoprecipitation [3] | IC50 [4] [nM]
5' TTTTTTTTTTTTTTTTTTTTT 3' (chemistry not given here) [T-21, a 21mer composed solely of thymidylic acid residues] | only moderate inhibition | < 1000 | nearly total inhibition | 
GTCCACCATGGCGCGGCCGGC (ssDNA, PS, two linkages at each of 5' and 3' ends, rest phosphodiester) [ODN1 (BCR-AS), phosphorothioate capped] |  |  |  | 620
